IC50 data for one substance are collected here from paper PMC10042146, “SARS-CoV-2 M^pro Protease Variants of Concern Display Altered Viral Substrate and Cell Host Target Galectin-8 Processing but Retain Sensitivity toward Antivirals” (ACS Central Science, 2023).

This experiment deals with T1, SARS-CoV-2 M^pro (wild type) (Severe acute respiratory syndrome coronavirus 2, UniProt P0DTD1).
T1 construct: gene rep; mature nsp5 cut from replicase polyprotein 1ab (also pp1a); homodimer; purification details only in supplement
In kind it is biochemical.

In the case of AVI-8053, the midpoint of inhibition, the IC50, lay at 0.019 µM.
